Data: patent US10301280B2 (Plexxikon Inc., priority 2012, dated 2019)

Target: c-kit kinase (Homo sapiens (Human), UniProt P10721)
Assay: c-Kit biochemical assay (AlphaScreen)
Details: c-kit biochemical inhibitory activity
Procedure: Assays for biochemical cell-based activity of c-kit kinase are known in the art, for example, as described in U.S. Pat. Nos. 7,498,342 and 7,846,941, the disclosures of which are hereby incorporated by reference as it relates to such assays. The c-kit (or kinase domain thereof) is an active kinase in AlphaScreen. IC50 values are determined with respect to inhibition of c-Kit kinase activity, where inhibition of phosphorylation of a peptide substrate is measured as a function of compound concentration. Compounds to be tested were dissolved in DMSO to a concentration of 20 mM. These were diluted 30 μl into 120 μl of DMSO (4 mM) and 1 μl was added to an assay plate. These were then serially diluted 1:3 (50 μl to 100 μl DMSO) for a total of 8 points. Plates were prepared such that each kinase reaction is 20 μl in 1× kinase buffer (50 mM HEPES, pH 7.2, 5 mM MgCl2, 5 mM MnCl2, 0.01% NP-40, 0.2% BSA), 5% DMSO and 10 µM ATP. Substrate was 100 nM biotin-(E4Y)3 (Open Source Biotech, Inc.). C-kit kinase was at 0.1 ng per sample. After incubation of the kinase reaction for 1 hour at room temperature, 5 μl of donor beads (Streptavidin coated beads (Perkin Elmer Life Science) final concentration 1 μg/ml) in stop buffer (50 mM EDTA in 1× kinase buffer) was added, the sample was mixed and incubated for 20 minutes at room temperature before adding 5 μl of acceptor beads (PY20 coated beads (Perkin Elmer Life Science) final concentration 1 μg/ml) in stop buffer. The samples were incubated for 60 minutes at room temperature and the signal per well was read on AlphaQuest reader. Phosphorylated substrate results in binding of the PY20 antibody and association of the donor and acceptor beads such that signal correlates with kinase activity. The signal vs. compound concentration was used to determine the IC50.
Compounds were also tested using a similar assay with a 10-fold higher ATP concentration. For these samples, compounds to be tested were dissolved in DMSO to a concentration of 20 mM. These were diluted 30 μl into 120 μl of DMSO (4 mM) and 1 μl was added to an assay plate. These were then serially diluted 1:3 (50 μl to 100 μl DMSO) for a total of 8 points. Plates were prepared such that each kinase reaction is 20 μl in 1× kinase buffer (25 mM HEPES, pH 7.5, 2 mM MgCl2, 2 mM MnCl2, 0.01% Tween-20, 1 mM DTT, and 0.001% BSA), 5% DMSO and 100 µM ATP. Substrate was 30 nM biotin-(E4Y)10 (Upstate Biotech, Cat#12-440). C-kit kinase was at 1 ng per sample. After incubation of the kinase reaction for 1 hour at room temperature, 5 μl of donor beads (Streptavidin coated beads (Perkin Elmer Life Science) final concentration 10 μg/ml) in stop buffer (25 mM HEPES pH 7.5, 100 mM EDTA, 0.3% BSA) was added, the sample was mixed and incubated for 20 minutes at room temperature before adding 5 μl of acceptor beads (PY20 coated beads (Perkin Elmer Life Science) final concentration 10 μg/ml) in stop buffer. The samples were incubated for 60 minutes at room temperature and the signal per well was read on AlphaQuest or Envision reader (Perkin Elmer Life Science). Phosphorylated substrate results in binding of the PY20 antibody and association of the donor and acceptor beads such that signal correlates with kinase activity. The signal vs. compound concentration was used to determine the IC50.
The c-kit enzyme used in the above assay was either obtained from Cell Signaling Technology (Cat. #7754) or was prepared as follows: A plasmid encoding kit (DNA and encoded protein sequences shown below) was engineered using common polymerase chain reaction (PCR) methods. Complementary DNA cloned from various human tissues were purchased from Invitrogen, and these were used as substrates in the PCR reactions. Specific custom synthetic oligonucleotide primers were designed to initiate the PCR product, and also to provide the appropriate restriction enzyme cleavage sites for ligation with the plasmids. […]

Chain of c-kit kinase (P10721 26-976): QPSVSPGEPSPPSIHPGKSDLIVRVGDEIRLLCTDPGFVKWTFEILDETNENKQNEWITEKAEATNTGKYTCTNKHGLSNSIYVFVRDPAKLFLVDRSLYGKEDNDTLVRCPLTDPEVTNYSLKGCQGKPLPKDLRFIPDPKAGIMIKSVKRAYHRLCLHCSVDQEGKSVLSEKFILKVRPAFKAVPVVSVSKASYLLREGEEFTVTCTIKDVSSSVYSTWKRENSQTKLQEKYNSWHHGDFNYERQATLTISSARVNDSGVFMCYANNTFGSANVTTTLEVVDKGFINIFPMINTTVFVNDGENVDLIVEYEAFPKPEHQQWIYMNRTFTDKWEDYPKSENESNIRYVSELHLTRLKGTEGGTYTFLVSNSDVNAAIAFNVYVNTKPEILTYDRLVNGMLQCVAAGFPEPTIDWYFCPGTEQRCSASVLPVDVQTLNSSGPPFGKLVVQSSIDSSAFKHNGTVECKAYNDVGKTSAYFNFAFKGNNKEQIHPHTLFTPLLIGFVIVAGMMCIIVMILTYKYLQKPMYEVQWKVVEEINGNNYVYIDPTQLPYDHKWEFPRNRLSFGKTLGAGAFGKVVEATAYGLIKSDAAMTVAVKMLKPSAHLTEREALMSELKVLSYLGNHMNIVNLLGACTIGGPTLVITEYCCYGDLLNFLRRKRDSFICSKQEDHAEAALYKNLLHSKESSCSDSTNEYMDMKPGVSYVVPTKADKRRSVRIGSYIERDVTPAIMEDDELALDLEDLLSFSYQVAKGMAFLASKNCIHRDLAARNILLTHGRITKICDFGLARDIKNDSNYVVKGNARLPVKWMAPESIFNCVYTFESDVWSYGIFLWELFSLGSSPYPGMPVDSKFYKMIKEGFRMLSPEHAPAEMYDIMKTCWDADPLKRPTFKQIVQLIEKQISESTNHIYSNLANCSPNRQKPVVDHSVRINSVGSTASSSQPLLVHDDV

| Compound | IC50 [µM] |
| --- | --- |
| Cc1n[nH]c(C(=O)Nc2cnc3[nH]c(-c4ccnc(N5CCN(C(=O)C6CC6)CC5)c4)cc3c2)c1C [P-2187, N-[2-[2-[4-(cyclopropanecarbonyl)piperazin-1-yl]-4-pyridyl]-1H-pyrrolo[2,3-b]pyridin-5-yl]-3,4-dimethyl-1H-pyrazole-5-carboxamide] | 1 to 10 |
| Cc1cc(-c2cc3cc(NC(=O)c4[nH]nc(C)c4C)cnc3[nH]2)cnc1C [P-2282, N-[2-(5,6-dimethyl-3-pyridyl)-1H-pyrrolo[2,3-b]pyridin-5-yl]-3,4-dimethyl-1H-pyrazole-5-carboxamide] | 1 to 10 |
| Cc1n[nH]c(C(=O)Nc2cnc3[nH]nc(-c4cccc(N5CCNCC5)c4)c3c2)c1C [P-2166, 3,4-dimethyl-N-[3-(3-piperazin-1-ylphenyl)-1H-pyrazolo[3,4-b]pyridin-5-yl]-1H-pyrazole-5-carboxamide] | 0.0001 to 1 |
| O=C(Nc1cnc2[nH]c(-c3ccccc3)cc2c1)c1cn[nH]n1 [P-2015, N-(2-phenyl-1H-pyrrolo[2,3-b]pyridin-5-yl)-2H-triazole-4-carboxamide] | 1 to 10 |
| Cc1n[nH]c(C(=O)Nc2cnc3[nH]c(-c4cncc(C#N)c4)cc3c2)c1C [P-2270, N-[2-(5-cyano-3-pyridyl)-1H-pyrrolo[2,3-b]pyridin-5-yl]-3,4-dimethyl-1H-pyrazole-5-carboxamide] | 10 to 200 |
| Cc1n[nH]c(C(=O)Nc2cnc3[nH]nc(C)c3c2)c1C [P-2040, 3,4-dimethyl-N-(3-methyl-1H-pyrazolo[3,4-b]pyridin-5-yl)-1H-pyrazole-5-carboxamide] | 10 to 200 |
| O=C(Nc1cnc2[nH]c(-c3ccccc3)cc2c1)c1ncccc1F [P-2012, 3-fluoro-N-(2-phenyl-1H-pyrrolo[2,3-b]pyridin-5-yl)pyridine-2-carboxamide] | 0.0001 to 1 |
| Cc1n[nH]c(C(=O)Nc2cnc3[nH]c(-c4ccc(CC(=O)O)cc4)cc3c2)c1C [P-2295, 2-[4-[5-[(3,4-dimethyl-1H-pyrazole-5-carbonyl)amino]-1H-pyrrolo[2,3-b]pyridin-2-yl]phenyl]acetic acid] | 0.0001 to 1 |
| COC(=O)c1cccc(C(=O)Nc2cnc3[nH]c(-c4ccccc4)cc3c2)c1 [P-2290, methyl 3-[(2-phenyl-1H-pyrrolo[2,3-b]pyridin-5-yl)carbamoyl]benzoate] | 10 to 200 |
| Cc1n[nH]c(C(=O)Nc2cnc3[nH]c(-c4ccc(C5(C(=O)O)CC5)cc4)cc3c2)c1C [P-2294, 1-[4-[5-[(3,4-dimethyl-1H-pyrazole-5-carbonyl)amino]-1H-pyrrolo[2,3-b]pyridin-2-yl]phenyl]cyclopropanecarboxylic acid] | 0.0001 to 1 |
| Cc1n[nH]c(C(=O)Nc2cnc3c(c2)cc(C2=CCN(C(=O)N4CCOCC4)CC2)n3S(=O)(=O)c2ccccc2)c1C [P-2033, N-[1-(benzenesulfonyl)-2-[1-(morpholine-4-carbonyl)-3,6-dihydro-2H-pyridin-4-yl]pyrrolo[2,3-b]pyridin-5-yl]-3,4-dimethyl-1H-pyrazole-5-carboxamide] | 10 to 200 |
| Cc1cccnc1C(=O)Nc1cnc2[nH]c(-c3ccccc3)cc2c1 [P-2016, 3-methyl-N-(2-phenyl-1H-pyrrolo[2,3-b]pyridin-5-yl)pyridine-2-carboxamide] | 1 to 10 |
| Cc1nn(C)cc1-c1cc2cc(NC(=O)c3[nH]nc(C)c3C)cnc2[nH]1 [P-2038, N-[2-(1,3-dimethylpyrazol-4-yl)-1H-pyrrolo[2,3-b]pyridin-5-yl]-4,5-dimethyl-1H-pyrazole-3-carboxamide] | 0.0001 to 1 |
| Cc1noc(C)c1C(=O)Nc1cnc2[nH]c(-c3ccccc3)cc2c1 [P-2013, 3,5-dimethyl-N-(2-phenyl-1H-pyrrolo[2,3-b]pyridin-5-yl)isoxazole-4-carboxamide] | 0.0001 to 1 |
| Cc1cc(-c2cc3cc(NC(=O)c4[nH]nc(C)c4C)cnc3[nH]2)ccc1C(=O)O [P-2296, 4-[5-[(3,4-dimethyl-1H-pyrazole-5-carbonyl)amino]-1H-pyrrolo[2,3-b]pyridin-2-yl]-2-methyl-benzoic acid] | 0.0001 to 1 |
